# Results from patent US4904668A, “Benzoyl urea compound” (Ishihara Sangyo Kaisha Ltd., priority 1986, dated 1990).
# Experiments:
# [1] = average particle size of pulverized benzoyl urea compound by light scattering (Autosizer Model 700); format: physicochemical; details: for average particle size in the liquid formulation: 3000 rpm 45 minutes, autoclaved
# Protocol: Compound No. 3, No. 5 or No. 6 (4 w/v%) as the benzoyl urea compound and polyoxyethylene hardened caster oil 60 (HCO-60, manufactured by Nikko Chemical K.K., 10 w/v%) as a dispersant were suspended in water, and after an addition of glass beads (from 1 to 1.4 mm in diameter) in an amount of the same volume, subjected to rotary pulverization by Dyno-mill for 20 minutes.
# (§1) The average particle size was measured in such a manner that the benzoyl urea compound was diluted to a concentration of 20 μg/ml and the average particle size was measured by a light scattering method (Autosizer, Model 700, manufactured by Maruburn Company) (the same applies hereinafter).
# Compound No. 3 (4 w/v%) and the following dispersant (10 w/v%) were suspended in water, and after an addition of glass beads (from 1 to 1.4 mm in diameter) in an amount of the same volume, subjected to rotary pulverization by Dyno-mill for 45 minutes. As the dispersant, polyoxyethylene hardened caster oil 60 (HCO-60, manufactured by Nikko Chemical K.K.), polyoxyethylene (160) polyoxypropylene (30) glycol (F68, manufactured by Asahi Denka Kogyo K.K.), a decaglycerol fatty acid ester (Decagly.ester, Nikko Chemical K.K.) or polysolbate 80 (Tween 80, manufactured by Nakarai Kagaku K.K.) was employed.
# Compound No. 3 (from 10 to 40 w/v%), HCO-60 (5 w/v%) as a dispersant and glass beads (from 1 to 1.5 mm in diameter) were subjected to rotary pulverization by Dyno-mill for pulverization time of 30 minutes. Then, the average particle size of the benzoyl urea compound was measured.
# Compound No. 3 (20 w/v%), HCO-60 (from 2.5 to 10 w/v%) as the dispersant and glass beads (from 1 to 1.5 mm in diameter) were subjected to rotary pulverization by Dyno-mill for a pulverization time of 30 minutes. Then, the average particle size of the benzoyl urea compound was measured.
# Compound No. 3 (40 w/v%), HCO-60 (5 w/v%) as the dispersant and glass beads (three types having a diameter of from 0.25 to 0.5, from 0.5 to 0.75 and from 1 to 1.5 mm, respectively) were subjected to rotary pulverization by Dyno-mill for a pulverization time of 30 minutes. Then, the average particle size of the benzoyl urea compound was measured.
# Compound No. 3 (40 w/v%), HCO-60 (5 w/v%) as the dispersant and glass beads (from 0.25 to 0.5 mm in diameter), were subjected to rotary pulverization by Dyno-mill for a pulverization time of from 10 to 60 minutes. Then, the average particle size of the benzoyl urea compound was measured.
# Compound No. 3 (20 g) was suspended in 50 ml of a 5 w/v% HCO-60 aqueous solution, and the suspension was wet pulverized (3000 rpm for 45 minutes) by Dyno-mill by using 50 g of glass beads (from 0.25 to 0.5 mm in diameter). After the completion of the pulverization, glass beads were removed by sieving, to obtain a wet pulverized formulation of Compound No. 3.
# The wet pulverized formulation thus obtained was sterilized in an autoclave to obtain a liquid formulation of a final form. The average particle size of Compound No. 3 in this liquid formulation was 0.68 μm. Instead of the sterilization in an autoclave, it is possible to employ filtration to remove bacteria. If necessary, a sweetening agent, a perfume, etc. may be added.
# Compound No. 3 (15 g) was suspended in 50 ml of a 5 w/v% decaglycerol monolaurate (Decagline 1 L, manufactured by Nikko Chemical K.K.) aqueous solution, and the suspension was wet pulverized (3000 rpm for 45 minutes) by Dyno-mill by using 50 g of glass beads (from 0.25 to 0.5 mm in diameter). After the completion of the pulverization, glass beads were removed by sieving, to obtain a wet pulverized formulation of Compound No. 3.
# The wet pulverized formulation thus obtained was sterilized in an autoclave to obtain a liquid formulation of a final form. The average particle size of Compound No. 3 in this liquid formulation was 0.75 μm. Instead of the sterilization in an autoclave, it is possible to employ filtration to remove bacteria. If necessary, a sweetening agent, a perfume, etc. may be added. […]
# [2] = stability of particles in the liquid composition on storage at room temperature; format: physicochemical; details: compound 40 w/v%, HCO-60 10 w/v%
# Protocol: as §1
# The stability of particles in the liquid composition of the benzoyl urea compound was investigated.
# Namely, a wet pulverization formulation comprising compound No. 3 (40 w/v%) and HCO-60 (10 w/v%) was stored at room temperature, whereby the stability of the particles was investigated.
# [3] = oral administration of wet pulverized formulations to rats, AUC of concentration in blood; format: in vivo, Wister male rats; details: rat, plasma, 50 mg/kg, 50 mg/5 ml/kg, compound 40 w/v%, HCO-60 10 w/v%
# Protocol: Each of four wet pulverized formulations having different particle sizes [composition: Compound No. 3 (40 w/v%) and HCO-60 (10 w/v%)] was forcibly orally administered by an oral sonde to a group of 5 Wister male rats (body weight: 200 g) starved for 18 hours (dose: 50 mg/5 ml/kg). Then, blood (0.3 ml) was periodically sampled with heparin from the jugular vein. The blood thus obtained was subjected to separation of the plasma and removal of proteins by using acetonitrile, and then Compound No. 3 was quantitatively analyzed by a high speed liquid chromatography using a reversed phase column (Nova Pak C18, 5μ, 3.9 mm in diameter×150 mm, Nihon Waters), and the curve of the concentration in blood was prepared. From the curve of the concentration in blood, the area below the curve was obtained by using a trapezoid formula and presented as AUC (Area Under the Curve).
# [4] = compound 4 w/v%, HCO-60 10 w/v%, glass beads 1 to 1.4 mm, Dyno-mill 20 minutes
smiles,measurement,setting,value
O=C(NC(=O)c1ccccc1[N+](=O)[O-])Nc1ccc(Oc2ncc(Br)cn2)c(Cl)c1 [Compound No. 3],average particle size in the liquid formulation,"[1]; Example 1: 20 g in 50 ml 5 w/v% HCO-60, beads 0.25 to 0.5 mm",0.68 μm
same,average particle size in the liquid formulation,"[1]; Example 3: 15 g in 50 ml 5 w/v% decaglycerol monolaurate, beads 0.25 to 0.5 mm",0.75 μm
same,Particle size (average),[1]; [4],0.43 μm
same,Particle size (average),"[1]; diameter of beads 0.25-0.5 mm, compound 40 w/v%, HCO-60 5 w/v%, 30 minutes",0.30 μm
same,Particle size (average),"[1]; diameter of beads 0.5-0.75 mm, compound 40 w/v%, HCO-60 5 w/v%, 30 minutes",0.33 μm
same,Particle size (average),"[1]; diameter of beads 1-1.5 mm, compound 40 w/v%, HCO-60 5 w/v%, 30 minutes (Table 5)",0.46 μm
same,Particle size (average),"[1]; dispersant Decagly.ester 10 w/v%, compound 4 w/v%, beads 1 to 1.4 mm, 45 minutes",0.6 μm
same,Particle size (average),"[1]; dispersant F68 10 w/v%, compound 4 w/v%, beads 1 to 1.4 mm, 45 minutes",0.9 μm
same,Particle size (average),"[1]; dispersant HCO-60 2.5 w/v%, compound 20 w/v%, beads 1 to 1.5 mm, 30 minutes",0.54 μm
same,Particle size (average),"[1]; dispersant HCO-60 5 w/v%, compound 20 w/v%, beads 1 to 1.5 mm, 30 minutes (Table 4)",0.50 μm
same,Particle size (average),"[1]; dispersant HCO-60 10 w/v%, compound 4 w/v%, beads 1 to 1.4 mm, 45 minutes",0.9 μm
same,Particle size (average),"[1]; dispersant HCO-60 10 w/v%, compound 20 w/v%, beads 1 to 1.5 mm, 30 minutes",0.45 μm
same,Particle size (average),"[1]; dispersant Tween 80 10 w/v%, compound 4 w/v%, beads 1 to 1.4 mm, 45 minutes",0.6 μm
same,Particle size (average),"[1]; pulverization time 10 minutes, compound 40 w/v%, HCO-60 5 w/v%, beads 0.25 to 0.5 mm",0.38 μm
same,Particle size (average),"[1]; pulverization time 20 minutes, compound 40 w/v%, HCO-60 5 w/v%, beads 0.25 to 0.5 mm",0.33 μm
same,Particle size (average),"[1]; pulverization time 30 minutes, compound 40 w/v%, HCO-60 5 w/v%, beads 0.25 to 0.5 mm (Table 6)",0.29 μm
same,Particle size (average),"[1]; pulverization time 40 minutes, compound 40 w/v%, HCO-60 5 w/v%, beads 0.25 to 0.5 mm",0.27 μm
same,Particle size (average),"[1]; pulverization time 50 minutes, compound 40 w/v%, HCO-60 5 w/v%, beads 0.25 to 0.5 mm",0.26 μm
same,Particle size (average),"[1]; pulverization time 60 minutes, compound 40 w/v%, HCO-60 5 w/v%, beads 0.25 to 0.5 mm",0.26 μm
same,Particle size (average),"[1]; sample 10 w/v%, HCO-60 5 w/v%, beads 1 to 1.5 mm, 30 minutes",0.56 μm
same,Particle size (average),"[1]; sample 20 w/v%, HCO-60 5 w/v%, beads 1 to 1.5 mm, 30 minutes",0.50 μm
same,Particle size (average),"[1]; sample 40 w/v%, HCO-60 5 w/v%, beads 1 to 1.5 mm, 30 minutes",0.46 μm
same,Particle size on storage,[2]; 0 months,0.7 μm
same,Particle size on storage,[2]; 1 month,0.8 μm
same,Particle size on storage,[2]; 3 months,1.3 μm
same,AUC(0-t) at 24 h,[3]; particle size 0.31 μm,11600 ± 2300 ng·h/mL
same,AUC(0-t) at 24 h,[3]; particle size 0.66 μm,10000 ± 1600 ng·h/mL
same,AUC(0-t) at 24 h,[3]; particle size 1.5 μm,8100 ± 1200 ng·h/mL
same,AUC(0-t) at 24 h,[3]; particle size 2.5 μm,6900 ± 1400 ng·h/mL
O=C(NC(=O)c1ccccc1[N+](=O)[O-])Nc1ccc(Oc2ncc(Cl)cn2)c(C(F)(F)F)c1 [Compound No. 5],Particle size (average),[1]; [4],1.13 μm
O=C(NC(=O)c1ccccc1[N+](=O)[O-])Nc1ccc(Oc2ncc(Cl)cn2)c([N+](=O)[O-])c1 [Compound No. 6],Particle size (average),[1]; [4],0.72 μm
